Reference: patent publication US20030212142A1, “Use of derivatives of valproic acid and 2-valproenic acid amides for the treatment of mania in bipolar disorder” (Yissum Research Development Company of the Hebrew …, priority 2000, published 2003)
“Also recorded” adds a separate entry of the source.

Tested on: amphetamine-induced hyperactivity
Assay: amphetamine-induced hyperactivity model of mania in rats (activity meter, rearing)
Assay type: in vivo, male Sprague Dawley rats
Details: Compound 1 200 mg/kg by gavage; for Vertical Activity (Rearing), Mean Activity, Amphetamine challenge: amphetamine 0.5 mg/kg s.c. challenge; for Vertical Activity (Rearing), Mean Activity, Amphetamine challenge / Vertical Activity (Rearing), Mean activity, Saline challenge: movements per 30 min, Li+ 6 mg/kg by gavage; for Vertical Activity (Rearing), Mean activity, Saline challenge: saline s.c. challenge
Experimental: Evaluation of possible anti-bipolar effects of Compound 1 was followed in the amphetamine-induced hyperactivity model of mania in rats. Activities of rats were followed in an activity meter (Elvicom, Israel) based on 2 levels laser beams and equipped with a computerized system that can count the vertical movements of rats (rearing). Activities were recorded for -30 min for each session, and the resultant appropriate movement reported per 30 min. Rats were housed under a 12 hr light/dark cycle and the behavioral testing was conducted in the light phase.
The activities of rats following treatment with Compound 1, Li^+ (the standard drug for mania), and a control group were followed before and after being challenged with amphetamine. The statistical analyses were conducted using a two way ANOVA for the effects of drugs, amphetamine (repeated measure) and the drug-amphetamine interaction.
In these experiments 30 male Sprague Dawley (weighing 200-250 g) rats were equally divided into 3 treatment groups: control, Li^+ (6 mg/kg by gavage)), and Compound 1 (200 mg/kg by gavage) (Drugs were suspended in 5% methyl cellulose). Half of the rats in each group were challenged (administered) amphetamine (0.5 mg/kg subsutaneously (s.c.)) and the other half was given saline (s.c.). Ten minutes later all rats were placed in the activity meter. One week later the procedure was repeated, except that the order of treatment was reversed; those rats which received saline on the first day were given amphetamine and those given amphetamine the first day were administered saline.

Compound	Vertical Activity (Rearing), Mean Activity, Amphetamine challenge	effect on amphetamine-induced rearing compared to control animals challenged with amphetamine (amphetamine 0.5 mg/kg s.c., p=0.06)	Vertical Activity (Rearing), Mean activity, Saline challenge
CCCC(CCC)C(=O)NCC(N)=O [Compound 1]	71.3	decreases amphetamine-induced hyperactivity; also recorded: reduced the rearing; also recorded: decreased the induced rearing in a similar manner as Li^+	34.1
[Li] [Li, lithium, reference compound]	126.7		59.8
